“Also recorded” adds a separate entry of the source.

For assay [1], the system named is ICAM-1 expression in HUVECs. As to the kind of experiment: ICAM-1 expression in HUVECs pre-treated 5 days with dexamethasone, then oxidatively stressed with PMA (ELISA). The assay is classed as cell-based, Human. The settings on record: then 1 μM PMA, HUVEC. On the procedure:
An in vitro model has been developed to investigate the impact of chronic stress on the inflammatory status of endothelial cells. • a. Cells are grown in 6-well (9.5 cm^2) plates. • b. […] Tissue culture supernatant and cell pellets are harvested at timepoint T0. • d. The cells are oxidatively stressed with 1 μM Phorbol Myristate Acetate (PMA). • e. Tissue culture supernatant and cell pellets were harvested at 6, 24 and 48 hours (T6, T24 and T48, respectively) post-PMA treatment. • f. All tissue culture supernatant was assayed for Lactate Dehydrogenase (LDH), as a measure of cytotoxicity, and Interleukin-6 synthesis. • g. All cells were counted (Beckman Coulter Counter) and pelleted and cell lysate assayed for ICAM-1 expression (Intra Cellular Adhesion Molecule 1).
HUVEC cells (Human umbilical vein endothelial cells, TCS Biologicals) were cultured and passaged in EGM-2 (Endothelial growth medium, Biowhittaker) supplemented with heparin, VEGF (vascular endothelial growth factor), gentamicin sulphate, ascorbic acid, HEGF (Human endothelial growth factor), hydrocortisone, HFGF-B (Human fibroblast growth factor B), R3-IGF-1 (long R insulin-like growth factor 1) and FBS (foetal bovine serum).
Cells were routinely plated out in 6-well tissue culture dishes, at a seeding density of ˜5000 cells/cm^2 in 2 ml complete medium/well, 48 hours before starting the experiment, and incubated at 37° C. in 5% CO2.
Pre-treatment and test solutions were prepared in EGM-2 containing all supplements except hydrocortisone.
Following this, the cells were oxidatively stressed for 24 hours with 1 μM PMA (Sigma P8139).
Receptor antagonists were added to the cells during the pre-treatment period. These included the Glucocorticoid Receptor Antagonist; 2 μM Mifepristone (Sigma M8046) and two CRH receptor antagonists; 200 nM Astressin (Sigma A4933) and 200 nM α-helical CRF peptide antagonist (Sigma C2917).
Any change in cell morphology was noted before the cells were harvested. Both the tissue culture supernatant and the endothelial cells were harvested after the five-day pre-treatment period (T0), at 6 hours and 24 hours after addition of PMA (T6 and T24) and at 24 hours after removal of the PMA (T48). All tissue culture supernatants were stored at −20° C.
All cell pellets were lysed on ice for 30 minutes in 1 ml cell lysis buffer per 2.5×10^6 cells. The lysis buffer contained 1% NP-40, 0.1% sodium deoxycholate, 0.1% SDS, 6 mM sodium chloride and 0.05M Tris at pH 7.6. Protease inhibitor cocktail ([…]; Sigma P8340) was added prior to use at a level of 10 μl per ml of lysis buffer. The partially lysed cell pellets were completely homogenised with a pellet pestle and unwanted cell debris removed by centrifugation for 20 minutes at 20,000 g at 4° C. The clarified cell lysate was frozen at −80° C. until needed.
The total protein concentration of each cell lysate was measured using the Pierce BCA protein assay kit. A set of eight standard solutions ranging from 0 to 1200 μg/ml protein was prepared from the supplied 2 mg/ml BSA stock solution. 10 μl of standard or cell lysate was added to duplicate wells of a flat-bottomed, 96-well microtitre plate. The reagent solution was prepared according to the kit instructions from 50 parts reagent A and 1 part reagent B. 200 μl of the final reagent was added to each well of the microtitre plate. The plate was mixed, covered and incubated at 37° C. for 30 minutes and absorbance read at 562 nm.
ICAM-1 protein in each cell lysate was estimated using the Human sICAM-1 DuoSet ELISA kit (R&D Systems DY720) according to the manufacturer's instructions.
The capture antibody was diluted to a final concentration of 4 μg/ml in PBS and 100 μl was used to coat each well of a 96-well microtitre plate overnight at room temperature. The plate was then washed three times with wash buffer (0.05% Tween 20 in PBS).

Assay [2] relates to procollagen-1 expression in human neonatal dermal fibroblast cells. The assay can be described thus: Procollagen I C-peptide EIA in neonatal-derived human dermal fibroblasts after chronic dexamethasone and PMA. The format is cell-based. Particulars: agent added during dexamethasone pre-treatment; dermal fibroblasts. On the procedure: (§1) In this study, to understand better the effect of chronic stress on dermal matrix remodelling in the skin, we have therefore measured changes in markers of dermal matrix degradation (MMP-1) and dermal matrix synthesis (Procollagen I) in chronically glucocorticoid-treated primary human dermal fibroblasts, following acute stress with PMA. The experimental approach is similar to that described in example 1 except that the cells tested are dermal fibroblasts and cells are assayed for expression of procollagen-1, MMP-1 and MMP-9 expression.
(§2) Primary human dermal fibroblast cells were cultured and passaged in DMEM (Gibco) supplemented with 10% FBS (foetal bovine serum). Cells were routinely plated out in 6-well tissue culture dishes, at a seeding density of ˜5000 cells/cm^2 in 2 ml complete medium/well for 24 hours, and incubated at 37° C. in 5% CO2. Media was removed and cells grown in DMEM & 1% FBS, 24 hours prior to treatments.
(§3) Pre-treatment and test solutions were prepared in DMEM containing low serum (1% FBS). […] Following this, the cells were oxidatively stressed for 24 hours with 1 μM PMA (Sigma P8139).
Collagen I is synthesised as a precursor molecule, Procollagen I. The amount of free propeptide therefore, reflects stoichiometrically, the amount of collagen I synthesised. The Procollagen Type I C-peptide Enzyme Immunoassay (EIA) kit allows for the quantitative determination of Procollagen Type I C-peptide (PIP).
Eight PIP standards were prepared in sample diluent at concentrations ranging from 0 to 640 ng/ml. 100 μl of antibody-Peroxidase conjugate solution and 20 μl of cell lysate (1 μg protein) or standard was added to duplicate wells. The plate was sealed and incubated at 37° C. for 3 hours before being washed four times with 400 μl of PBS. Each well then received 100 μl of substrate solution and the plate incubated at room temperature, on the benchtop, for 15 minutes. After this period, 100 μl stop solution was added to each well and absorbance measured at 450 nm with a plate reader.
A standard curve was plotted of mean absorbance versus PIP concentration and the line of best fit calculated by regression analysis. The unknown concentration of PIP in all the samples was estimated from this.
(§4) The same methods were used as described in Example 2, except that various test agents were added to the cells during the pre-treatment period.

Assay [3] concerns MMP-1 expression in human neonatal dermal fibroblast cells. As to the kind of experiment: Active MMP-1 in neonatal-derived human dermal fibroblasts after chronic dexamethasone and PMA. The assay is classed as cell-based. The settings on record: agent added during dexamethasone pre-treatment; dermal fibroblasts. The method, then:
as §1, §2, §3
MMP-1 and MMP-9 protein in each cell supernatant was estimated using the Human active MMP-1 and MMP-9 Fluorokine enzyme kit (R&D Systems F1M00 and F9M00, respectively), according to the manufacturer's instructions.
Six MMP-1 and MMP-9 standards were prepared in calibrator diluent at concentrations ranging from 0.39 to 12.5 ng/ml and 0.25 to 16 ng/ml, respectively. 100 μl of assay diluent and 150 μl of tissue culture supernatant or standard was added to duplicate wells. The plate was incubated at room temperature for 3 hours on a horizontal orbital plate shaker before being washed four times with wash buffer. 200 μl of APMA was added to each well and the plate incubated at 37° C. for 2 hours in a humidified environment and protected from the light. The plate was washed as before. Each well received 200 μl of substrate solution and the plate incubated at 37° C. for 17-20 hours in a humidified environment and protected from the light. The relative fluorescence unit (RFU) of each well was determined using a fluorescence plate set with 1×20 mS integration time, plate speed ˜6; excitation wavelength set to 320 nm and emission wavelength set to 405 nm.
A standard curve was plotted of mean RFU versus MMP-1 and MMP-9 concentration (respectively), and the line of best fit calculated by regression analysis. The unknown concentration of either active MMP-1 or MMP-9 protein in all of the samples was estimated from this.
as §4

[4] abbreviates: agent 10 μM during 5-day 1 μM dexamethasone pre-treatment.
The mark [5] stands for this setting: agent 1 μM during 5-day 1 μM dexamethasone pre-treatment.

As to `Cc1cccc(Nc2cc(Cl)nc(SCC(=O)O)n2)c1C` [WY14643], in assay [1] (setting [4]), the “Effective? (suppression of ICAM-1 synthesis in chronically stressed endothelial cells)” value (from here on “Effective?”) is recorded as “No”. With Mevinolin, the “Effective?” value in assay [1] (setting [5]) is on record as “Yes”. As for `CC(C)CC[C@@H](O)[C@@H](C)[C@H]1CC[C@H]2[C@@H]3CC=C4C[C@@H](O)CC[C@]4(C)[C@H]3CC[C@]12C` [22-OH-cholesterol, 22-(R)-Hydroxycholesterol], in assay [1] (setting [5]), the “Effective?” value is “Yes”. For `CCNC(=O)CC[C@H](N)C(=O)O` [Theanine], the “Effective?” value in assay [1] (setting [4]) is listed as “No”.

Turning to `O=C(O)/C=C/c1ccc(O)c(O)c1` [Caffeic acid], the “Effective?” value in assay [1] (agent 150 μM during 5-day 1 μM dexamethasone pre-treatment) is “No”. With `C/C(=C\CC/C(C)=C/CCC1[C@](C)(O)CC[C@H]2C(C)(C)C(=O)CC[C@]12C)CC/C=C(\C)C(=O)O` (stereo partly shown) [Commipheric acid], in assay [1] (agent 10 μg/ml during 5-day 1 μM dexamethasone pre-treatment), the “Effective?” value is recorded as “Yes”. Moreover, the “Effect on glucocorticoid effects on levels of procollagen expression following PMA-induced acute stress” value in assay [2] was “inhibited the effects of glucocorticoid”. Besides, the “Effect on glucocorticoid effects on levels of MMP-1 expression following PMA-induced acute stress” value in assay [3] is on record as “inhibited the effects of glucocorticoid”. For the compound `Oc1ccc(C=Cc2cc(O)cc(O)c2)cc1` [Resveratrol], in assay [1] (setting [4]), the “Effective?” value was “No”. For `CC#C[C@]1(O)CC[C@H]2[C@@H]3CCC4=CC(=O)CCC4=C3[C@@H](c3ccc(N(C)C)cc3)C[C@@]21C` [Mifepristone], in assay [1] (2 μM mifepristone during chronic 1 μM glucocorticoid pre-treatment), the “ICAM-1 expression compared with cells without chronic GC treatment” value is listed as “below that seen in cells that had not received chronic GC treatment”. The “Effect on oxidative stress-induced increase in ICAM-1 expression” value in assay [1] (2 μM mifepristone during chronic 1 μM glucocorticoid pre-treatment, FIG. 3) is on record as “significant reduction; also recorded: completely blocked”. In the case of `COc1cc(/C=C/C(=O)CC(=O)/C=C/c2ccc(O)c(OC)c2)ccc1O` [Curcumin], the “Effective?” value in assay [1] (setting [5]) was “Yes”. Further, the “Effect on glucocorticoid effects on levels of procollagen expression following PMA-induced acute stress” value in assay [2] is listed as “inhibited the effects of glucocorticoid”. Further, the “Effect on glucocorticoid effects on levels of MMP-1 expression following PMA-induced acute stress” value in assay [3] is listed as “inhibited the effects of glucocorticoid”. As to `CC(C)=CCC[C@](C)(O[C@@H]1O[C@H](CO[C@@H]2O[C@H](CO)[C@@H](O)[C@H](O)[C@H]2O)[C@@H](O)[C@H](O)[C@H]1O)[C@H]1CC[C@]2(C)[C@@H]1[C@H](O)C[C@@H]1[C@@]3(C)CC[C@H](O[C@@H]4O[C@H](CO)[C@@H](O)[C@H](O)[C@H]4O[C@@H]4O[C@H](CO)[C@@H](O)[C@H](O)[C@H]4O)C(C)(C)[C@@H]3CC[C@]12C` [Ginsenoside Rb1], the “Effective?” value in assay [1] (setting [5]) was “Yes”. Also, the “Effect on glucocorticoid effects on levels of procollagen expression following PMA-induced acute stress” value in assay [2] was “inhibited the effects of glucocorticoid”. Moreover, the “Effect on glucocorticoid effects on levels of MMP-1 expression following PMA-induced acute stress” value in assay [3] was “inhibited the effects of glucocorticoid”. For the compound `C=C1[C@@H](O)[C@@H]2O[C@]3(CC[C@H](/C=C/[C@@H](C)[C@@H]4CC(C)=C[C@@]5(O[C@H](C[C@@](C)(O)C(=O)O)CC[C@H]5O)O4)O3)CC[C@H]2O[C@@H]1[C@@H](O)C[C@H](C)[C@H]1O[C@@]2(CCCCO2)CC[C@H]1C` [Okadaic acid], the “Effective?” value in assay [1] (agent 1 nM during 5-day 1 μM dexamethasone pre-treatment) was “Yes”. Turning to Alliin, in assay [1] (setting [4]), the “Effective?” value is reported as “No”. Regarding `CC(C)=CCC[C@](C)(O[C@@H]1O[C@H](CO[C@@H]2O[C@@H](CO)[C@H](O)[C@H]2O)[C@@H](O)[C@H](O)[C@H]1O)[C@H]1CC[C@]2(C)[C@@H]1[C@H](O)C[C@@H]1[C@@]3(C)CC[C@H](O[C@@H]4O[C@H](CO)[C@@H](O)[C@H](O)[C@H]4O[C@@H]4O[C@H](CO)[C@@H](O)[C@H](O)[C@H]4O)C(C)(C)[C@@H]3CC[C@]12C` [Ginsenoside Rc], the “Effective?” value in assay [1] (setting [5]) is given as “Yes”. For the same compound, the “Effect on glucocorticoid effects on levels of procollagen expression following PMA-induced acute stress” value in assay [2] was “inhibited the effects of glucocorticoid”. In addition, the “Effect on glucocorticoid effects on levels of MMP-1 expression following PMA-induced acute stress” value in assay [3] is recorded as “inhibited the effects of glucocorticoid”.
